The conditions of data set [1]: PBS buffer or PBS buffer with 5% DMSO. From the text: Each cPT was synthesized starting from the corresponding amino acids: Asn for 34 and Dab for 35. Designation of “poor” and “good” solubility was based on behavior of cPT in PBS buffer or PBS buffer with 5% DMSO.
Another data set deals with HOS.T4.R5 cells. Particulars: highest concentrations used 100 μM, 24 h post-exposure. As to the method: cPTs 36 and 37 were tested for cytotoxicity in vitro with HOS.T4.R5 cells. The latter were seeded at […] per well and incubated with peptides as described elsewhere herein for the infection inhibition assays. Cell viability was determined using the tetrazolium salt premix reagent WST-1 from TaKaRa Bio, Inc., by following the manufacturer's protocol. The formazan product was measured 24 h post-exposure using a microplate reader (Molecular Devices) at an absorbance wavelength of 450 nm.

[2] abbreviates: read-out: HIV-1Bal.01 infection inhibition IC50, HIV-1Bal.01 pseudovirus, HOS.T4.R5 cells.
The mark [3] stands for this setting: read-out: HIV-1 IC50, HIV-1Bal.01 infection inhibition, Table 1.

Values joined by “and” are separate entries in the source; they are usually repeats but may differ in a detail not shown here. Identical values can stand only once. Like-named read-outs stand apart in the source and are kept apart here. *1 amine or outer side, *2 acyl side, *3 side chain or, on linkers, in order; H or OH if unused. Where a SMILES comes first, the peptide text is derived from it. Bridges are numbered along the chain shown (N, C = ends). [ ]: non-standard residue; d: D form. X18 = O=C([C@@H]1C[C@H](n2cc(-c3ccc(-c4ccccc4)cc3)nn2)CN1[*:1])[*:2]; X1 = O=C([C@@H]1C[C@H](n2cc(-c3ccc(-c4cccs4)cc3)nn2)CN1[*:1])[*:2]; X6 = O=C([C@@H]1C[C@H](n2cc(-c3ccc(-c4cccs4)s3)nn2)CN1[*:1])[*:2]; X13 = O=C([C@@H]1C[C@H](n2cc(-c3cc4ccccc4cn3)nn2)CN1[*:1])[*:2]; X9 = CCc1ccc(-c2cn([C@H]3C[C@@H](C(=O)[*:2])N([*:1])C3)nn2)cc1; X8 = O=C([C@@H]1C[C@H](n2cc(Cc3ccc(Cl)cc3)nn2)CN1[*:1])[*:2]; Bta = N[C@@H](Cc1csc2ccccc12)C(=O)O; Chg = N[C@H](C(=O)O)C1CCCCC1; Suc = O=C(CCC(=O)[*:2])[*:1]; Dab = NCC[C@H](N)C(=O)O

For orientation: IC50 means the concentration at which inhibition is half-maximal.

For `CC[C@H](C)[C@@H]1NC(=O)[C@H](CC(N)=O)NC(=O)[C@@H](N)CC(=O)NCCCC[C@@H](C(N)=O)NC(=O)[C@H](Cc2c[nH]c3ccccc23)NC(=O)[C@@H]2C[C@H](n3cc(-c4ccc(-c5ccccc5)cc4)nn3)CN2C1=O` [compound 23] (H-DNI[X18]WK-NH2; lactam 1-6), the IC50 with HIV-1Bal.01 (setting [2]) was determined as 269 nM.
With `CC[C@H](C)[C@@H]1NC(=O)[C@H](CC(N)=O)NC(=O)[C@@H](N)CC(=O)NCCCC[C@@H](C(N)=O)NC(=O)[C@H](Cc2c[nH]c3ccccc23)NC(=O)[C@@H]2C[C@H](n3cc(-c4cc5ccccc5cn4)nn3)CN2C1=O` [compound 30] (H-DNI[X13]WK-NH2; lactam 1-6), the half-maximal inhibitory concentration (IC50) in the data set with HIV-1Bal.01 (setting [2]) was approximately 5000 nM; in the data set on HIV-1Bal.01 (setting [3]) it was 5000 ± 850 nM.
In the case of `CC[C@H](C)[C@@H]1NC(=O)[C@H](CC(N)=O)NC(=O)[C@@H](N)CC(=O)NCCCC[C@@H](C(N)=O)NC(=O)[C@H](Cc2c[nH]c3ccccc23)NC(=O)[C@@H]2C[C@H](n3cc(Cc4ccc(Cl)cc4)nn3)CN2C1=O` [compound 31] (H-DNI[X8]WK-NH2; lactam 1-6), the concentration for half-maximal inhibition (IC50) was approximately 1800 nM in the data set with HIV-1Bal.01 (setting [2]) and 1800 ± 500 nM in the data set on HIV-1Bal.01 (setting [3]).
Take `CCc1ccc(-c2cn([C@H]3C[C@H]4C(=O)N[C@@H](Cc5csc6ccccc56)C(=O)N[C@H](C(N)=O)CCCCNC(=O)C[C@H](N)C(=O)N[C@@H](CC(N)=O)C(=O)N[C@@H](C5CCCCC5)C(=O)N4C3)nn2)cc1` [compound 34] (H-DN[Chg][X9][Bta]K-NH2; lactam 1-6): the solubility result in data set [1] was “poor solubility”.
On the same count and under the same terms, for `CCc1ccc(-c2cn([C@H]3C[C@H]4C(=O)N[C@@H](Cc5csc6ccccc56)C(=O)N[C@H](C(N)=O)CCCCNC(=O)C[C@H](N)C(=O)N[C@@H](CCN)C(=O)N[C@@H](C5CCCCC5)C(=O)N4C3)nn2)cc1` [compound 35] (H-D[Dab][Chg][X9][Bta]K-NH2; lactam 1-6) the value was “better solubility”.
In the case of `CC[C@H](C)[C@@H]1NC(=O)[C@H](CC(N)=O)NC(=O)[C@@H](N)CC(=O)NCCCC[C@@H](C(N)=O)NC(=O)[C@H](Cc2c[nH]c3ccccc23)NC(=O)[C@@H]2C[C@H](n3cc(-c4ccc(-c5cccs5)s4)nn3)CN2C1=O` [compound 37] (H-DNI[X6]WK-NH2; lactam 1-6), the half-inhibitory concentration (IC50) with HIV-1Bal.01 (setting [2]) is 405 nM. In the data set on HOS.T4.R5 cells, the “cytotoxicity (cell viability)” value is reported as “no cytotoxicity was detected”.
In the case of `CC[C@H](C)[C@@H]1NC(=O)[C@H](CC(N)=O)NC(=O)CCC(=O)NCCCC[C@@H](C(N)=O)NC(=O)[C@H](Cc2c[nH]c3ccccc23)NC(=O)[C@@H]2C[C@H](n3cc(-c4ccc(-c5cccs5)cc4)nn3)CN2C1=O` [compound 38] (NI[X1]WK-NH2; linker N-5 via Suc), in the data set on HIV-1Bal.01 (infection inhibition), the “fold decrease in potency compared to 36” value is reported as “about 8 fold”. Besides, in the data set with HIV-1Bal.01 (setting [2]), the IC50 is ~882 nM and 882 nM.

The record behind these values is patent publication US12421279B2, “Cyclic peptide antiviral agents and methods using same” (priority 2016, dated 2025).
